Like-named read-outs stand apart in the source and are kept apart here. Where only a bound is given, the exact number is not on record here.

Test in all cases: Kinase binding assay (kinase-tagged T7 phage / qPCR, Ambit Biosciences)
In general terms: In qPCR the cycle at which signal appears reflects the starting amount.

Test [1] has as its target T1, PI3Kγ (Homo sapiens, UniProt P48736).
T1 construct: purchased Ambit Biosciences; host or cells: E. coli BL21-derived host (T7 phage) or HEK-293
Conditions: read-out: inhibitory activity (IC50) against PI3Kγ. The method, then: (§1) Assays were performed as described in Fabian et al. (2005) Nature Biotechnology, vol. 23, p. 329 and in Karaman et al. (2008) Nature Biotechnology, vol. 26, p. 127.
(§2) Kinase assays. For most assays, kinase-tagged T7 phage strains were grown in parallel in 24-well blocks in an E. coli host derived from the BL21 strain. E. coli were grown to log-phase and infected with T7 phage from a frozen stock (multiplicity of infection ˜0.1) and incubated with shaking at 32° C. until lysis (˜90 minutes). The lysates were centrifuged (6,000×g) and filtered ([…]) to remove cell debris. The remaining kinases were produced in HEK-293 cells and subsequently tagged with DNA for qPCR detection. Streptavidin-coated magnetic beads were treated with biotinylated small molecule ligands for 30 minutes at room temperature to generate affinity resins for kinase assays. The liganded beads were blocked with excess biotin and washed with blocking buffer (SeaBlock (Pierce), 1% BSA, 0.05% Tween 20, 1 mM DTT) to remove unbound ligand and to reduce non-specific phage binding. Binding reactions were assembled by combining kinases, liganded affinity beads, and test compounds in 1× binding buffer (20% SeaBlock, 0.17×PBS, 0.05% Tween 20, 6 mM DTT). Test compounds were prepared as 40× stocks in 100% DMSO and directly diluted into the assay. All reactions were performed in polypropylene 384-well plates in a final volume of 0.04 ml. The assay plates were incubated at room temperature with shaking for 1 hour and the affinity beads were washed with wash buffer (1×PBS, 0.05% Tween 20). The beads were then re-suspended in elution buffer (1×PBS, 0.05% Tween 20, 0.5 mM non-biotinylated affinity ligand) and incubated at room temperature with shaking for 30 minutes. The kinase concentration in the eluates was measured by qPCR.
(§3) Compounds were tested using the above assay at Ambit Biosciences (San Diego, Calif., USA).

In test [2] the target is T2, PI3Kα (Homo sapiens, UniProt P42336).
T2 construct: purchased Ambit Biosciences; host or cells: E. coli BL21-derived host (T7 phage) or HEK-293
T2 sequence (P42336 whole entry): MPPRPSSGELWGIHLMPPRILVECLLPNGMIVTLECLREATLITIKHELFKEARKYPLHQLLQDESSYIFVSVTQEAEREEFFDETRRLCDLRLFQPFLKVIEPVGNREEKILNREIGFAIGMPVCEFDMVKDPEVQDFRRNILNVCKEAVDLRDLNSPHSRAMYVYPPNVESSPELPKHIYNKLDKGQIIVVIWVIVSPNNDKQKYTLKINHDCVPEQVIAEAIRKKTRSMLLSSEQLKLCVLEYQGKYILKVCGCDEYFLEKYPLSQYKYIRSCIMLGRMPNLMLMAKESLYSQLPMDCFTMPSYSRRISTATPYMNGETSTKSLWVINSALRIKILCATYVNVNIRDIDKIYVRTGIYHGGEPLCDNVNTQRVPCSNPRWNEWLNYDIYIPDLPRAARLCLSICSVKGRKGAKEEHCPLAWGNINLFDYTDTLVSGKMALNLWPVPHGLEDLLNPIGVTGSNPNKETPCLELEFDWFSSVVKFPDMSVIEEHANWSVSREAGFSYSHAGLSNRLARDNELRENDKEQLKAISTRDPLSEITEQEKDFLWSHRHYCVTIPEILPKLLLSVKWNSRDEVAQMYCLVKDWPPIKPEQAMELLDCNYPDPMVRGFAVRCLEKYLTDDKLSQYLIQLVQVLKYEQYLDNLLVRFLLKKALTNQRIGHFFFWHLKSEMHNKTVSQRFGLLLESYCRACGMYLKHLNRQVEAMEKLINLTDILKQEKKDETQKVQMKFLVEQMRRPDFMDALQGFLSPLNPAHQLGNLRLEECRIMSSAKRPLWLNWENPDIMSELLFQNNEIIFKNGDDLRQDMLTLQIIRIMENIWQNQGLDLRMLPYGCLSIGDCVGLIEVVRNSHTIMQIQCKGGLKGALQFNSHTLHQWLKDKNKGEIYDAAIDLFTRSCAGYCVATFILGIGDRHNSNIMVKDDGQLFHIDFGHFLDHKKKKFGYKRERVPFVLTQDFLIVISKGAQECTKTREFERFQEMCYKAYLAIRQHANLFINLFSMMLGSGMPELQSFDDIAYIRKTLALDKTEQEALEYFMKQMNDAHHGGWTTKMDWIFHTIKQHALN
Conditions: read-out: inhibitory activity (IC50) against PI3Kα. The method, then:
as §1, §2, §3

The target in test [3] is T3, PI3Kδ (Homo sapiens, UniProt O00329).
T3 construct: purchased Ambit Biosciences; host or cells: E. coli BL21-derived host (T7 phage) or HEK-293
T3 sequence (O00329 1-1044): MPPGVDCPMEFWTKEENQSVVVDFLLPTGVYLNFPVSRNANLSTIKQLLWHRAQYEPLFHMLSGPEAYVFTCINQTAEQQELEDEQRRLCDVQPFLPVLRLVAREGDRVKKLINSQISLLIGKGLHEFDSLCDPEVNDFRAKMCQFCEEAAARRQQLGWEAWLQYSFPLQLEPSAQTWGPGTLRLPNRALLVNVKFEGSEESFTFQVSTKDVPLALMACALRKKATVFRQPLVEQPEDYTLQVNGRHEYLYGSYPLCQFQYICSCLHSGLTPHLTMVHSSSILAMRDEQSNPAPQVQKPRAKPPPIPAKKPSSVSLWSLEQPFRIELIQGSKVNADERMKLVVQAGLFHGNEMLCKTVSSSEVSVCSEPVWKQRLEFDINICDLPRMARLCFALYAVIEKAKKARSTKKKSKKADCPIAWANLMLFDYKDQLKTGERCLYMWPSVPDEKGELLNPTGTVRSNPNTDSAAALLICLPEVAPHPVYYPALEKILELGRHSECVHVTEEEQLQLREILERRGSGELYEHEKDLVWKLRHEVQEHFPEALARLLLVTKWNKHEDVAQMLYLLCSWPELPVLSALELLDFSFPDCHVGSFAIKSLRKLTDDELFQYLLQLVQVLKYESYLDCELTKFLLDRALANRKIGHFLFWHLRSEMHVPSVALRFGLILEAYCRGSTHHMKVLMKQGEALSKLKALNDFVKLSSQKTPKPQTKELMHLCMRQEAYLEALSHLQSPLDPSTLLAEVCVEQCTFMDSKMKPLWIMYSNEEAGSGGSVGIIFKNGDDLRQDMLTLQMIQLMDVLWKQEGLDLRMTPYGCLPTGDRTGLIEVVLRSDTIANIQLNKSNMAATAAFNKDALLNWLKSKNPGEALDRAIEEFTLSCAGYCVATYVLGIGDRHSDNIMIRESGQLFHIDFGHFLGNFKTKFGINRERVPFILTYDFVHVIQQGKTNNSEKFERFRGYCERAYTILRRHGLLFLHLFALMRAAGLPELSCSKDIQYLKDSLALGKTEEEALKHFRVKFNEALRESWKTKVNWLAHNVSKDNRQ
How it is done:
as §1, §2, §3

For test [4], the target named is T4, mTOR (Homo sapiens, UniProt P42345).
T4 construct: purchased Ambit Biosciences; host or cells: E. coli BL21-derived host (T7 phage) or HEK-293
The conditions noted are these: read-out: inhibitory activity (IC50) against mTOR. How it is done: as §1, §2, §3

Test [5] addresses T5, PI3Kβ (Homo sapiens, UniProt P42338).
T5 construct: purchased Ambit Biosciences; host or cells: E. coli BL21-derived host (T7 phage) or HEK-293
The conditions noted are these: read-out: inhibitory activity (IC50) against PI3Kβ. How it is done: as §1, §2, §3

T1 sequence (P48736 whole entry): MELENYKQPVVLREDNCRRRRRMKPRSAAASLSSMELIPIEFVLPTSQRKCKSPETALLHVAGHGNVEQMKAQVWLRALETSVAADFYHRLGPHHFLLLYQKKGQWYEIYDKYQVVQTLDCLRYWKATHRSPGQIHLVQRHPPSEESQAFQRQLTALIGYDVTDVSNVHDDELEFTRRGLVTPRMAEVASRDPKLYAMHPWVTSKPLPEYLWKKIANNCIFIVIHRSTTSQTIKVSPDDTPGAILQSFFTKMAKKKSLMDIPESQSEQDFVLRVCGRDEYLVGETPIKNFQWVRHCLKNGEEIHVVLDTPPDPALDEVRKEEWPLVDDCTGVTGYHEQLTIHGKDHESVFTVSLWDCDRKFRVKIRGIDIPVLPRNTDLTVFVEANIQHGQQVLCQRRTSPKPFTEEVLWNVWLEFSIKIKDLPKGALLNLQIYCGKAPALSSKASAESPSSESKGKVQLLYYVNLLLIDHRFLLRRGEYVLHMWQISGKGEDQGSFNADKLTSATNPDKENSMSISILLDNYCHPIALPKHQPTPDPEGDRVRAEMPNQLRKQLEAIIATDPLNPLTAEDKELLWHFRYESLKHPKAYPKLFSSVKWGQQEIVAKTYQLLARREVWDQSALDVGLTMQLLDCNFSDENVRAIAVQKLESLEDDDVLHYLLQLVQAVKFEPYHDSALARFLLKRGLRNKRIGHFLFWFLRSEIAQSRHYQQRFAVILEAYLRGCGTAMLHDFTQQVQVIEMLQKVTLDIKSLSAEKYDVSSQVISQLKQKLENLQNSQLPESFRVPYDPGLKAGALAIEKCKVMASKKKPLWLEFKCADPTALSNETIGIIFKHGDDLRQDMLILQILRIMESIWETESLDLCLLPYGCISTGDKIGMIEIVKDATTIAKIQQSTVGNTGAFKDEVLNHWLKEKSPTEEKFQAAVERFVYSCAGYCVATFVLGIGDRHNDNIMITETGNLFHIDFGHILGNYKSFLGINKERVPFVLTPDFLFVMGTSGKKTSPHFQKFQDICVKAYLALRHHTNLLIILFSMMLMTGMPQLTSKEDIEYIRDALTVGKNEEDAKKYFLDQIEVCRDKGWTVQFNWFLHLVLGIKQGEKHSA
T5 sequence (P42338 whole entry): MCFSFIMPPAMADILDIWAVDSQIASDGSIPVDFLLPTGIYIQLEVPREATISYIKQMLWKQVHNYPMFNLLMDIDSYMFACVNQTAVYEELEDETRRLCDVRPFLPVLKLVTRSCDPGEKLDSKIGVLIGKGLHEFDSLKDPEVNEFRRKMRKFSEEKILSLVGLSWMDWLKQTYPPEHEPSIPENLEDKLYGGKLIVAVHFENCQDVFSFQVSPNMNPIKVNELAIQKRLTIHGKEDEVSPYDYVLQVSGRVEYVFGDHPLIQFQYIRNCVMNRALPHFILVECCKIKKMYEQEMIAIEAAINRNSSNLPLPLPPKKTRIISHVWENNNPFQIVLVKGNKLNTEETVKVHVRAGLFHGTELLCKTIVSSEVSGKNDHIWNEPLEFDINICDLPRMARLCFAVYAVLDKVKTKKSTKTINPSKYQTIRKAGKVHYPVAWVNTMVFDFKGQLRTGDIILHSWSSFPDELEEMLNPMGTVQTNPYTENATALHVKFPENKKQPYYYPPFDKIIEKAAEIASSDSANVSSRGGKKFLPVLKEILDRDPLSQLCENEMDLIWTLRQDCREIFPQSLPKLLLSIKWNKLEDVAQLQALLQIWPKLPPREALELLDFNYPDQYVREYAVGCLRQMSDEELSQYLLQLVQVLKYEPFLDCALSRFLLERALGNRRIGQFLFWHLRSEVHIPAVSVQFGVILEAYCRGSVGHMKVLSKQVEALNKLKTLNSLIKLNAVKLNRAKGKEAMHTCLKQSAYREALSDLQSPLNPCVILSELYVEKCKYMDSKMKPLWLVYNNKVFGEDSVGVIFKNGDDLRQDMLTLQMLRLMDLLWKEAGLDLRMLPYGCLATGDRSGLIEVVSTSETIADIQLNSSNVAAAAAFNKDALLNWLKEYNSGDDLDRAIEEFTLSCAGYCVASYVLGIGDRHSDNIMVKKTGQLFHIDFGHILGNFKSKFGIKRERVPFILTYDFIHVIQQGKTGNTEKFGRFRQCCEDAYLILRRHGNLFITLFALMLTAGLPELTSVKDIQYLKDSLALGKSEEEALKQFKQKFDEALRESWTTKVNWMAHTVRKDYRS

Regarding `COc1cccc2c1nc(C(F)F)n2-c1nc(N2CCOCC2)nc2c1ncn2C1CCOCC1` [Example 21, 1-(9-(2H-3,4,5,6-tetrahydropyran-4-yl)-2-morpholin-4-ylpurin-6-yl)-2-(difluoromethyl)-4-methoxybenzimidazole], the IC50 – broadly, the midpoint of a concentration-inhibition curve – in test [1] was less than 100 nM; in test [2], less than 100 nM; in test [3] (read-out: IC50, inhibition against PI3Kδ), less than 100 nM.
`Cc1nc2ccccc2n1-c1nc(N2CCOCC2)nc2c1ncn2CCO` [Example 2d, reference compound]: the “inhibition against PI3Kδ” value in test [3] (at up to 100 nM) is reported as “did not show significant inhibition”.
As for `OCCn1cnc2c(-n3c(C(F)F)nc4ccccc43)nc(N3CCOCC3)nc21` [Example 2, 2-{6-[2-(difluoromethyl)benzimidazol-1-yl]-2-morpholin-4-ylpurin-9-yl}ethan-1-ol], the 50% inhibitory concentration (IC50) in test [4] was greater than 100 nM; in test [1], greater than 100 nM; in test [2], greater than 100 nM; in test [5], greater than 100 nM; in test [3], less than 100 nM.
